Source: publication PMC3438169 (PLoS ONE, 2012)
*1 amine or outer side, *2 acyl side, *3 side chain or, on linkers, in order; H or OH if unused. Where a SMILES comes first, the peptide text is derived from it. [ ]: non-standard residue; d: D form. dAla(ψthiazole) = C[C@@H](N[*:1])c1nc(C(=O)[*:2])cs1; Trp(4-OMe) = COc1cccc2[nH]cc(C[C@H](N)C(=O)O)c12; dAbu = CC[C@@H](N)C(=O)O; Dha = C=C(N)C(=O)O; Sar = CNCC(=O)O

Columns and labels:
P. aeruginosa = assay: Broth microdilution susceptibility to argyrin B, P. aeruginosa strains; assay type: cell-based; conditions: for Susceptibility to argyrin B: broth microdilution
P. aeruginosa EF-G1 = biological target: T1, P. aeruginosa EF-G1 (Pseudomonas aeruginosa, UniProt Q9HWD2); assay: Co-crystal structure of EF-G1 with argyrin B; assay type: binding; conditions: PDB 4FN5, 2.9 Å
T1 construct: P. aeroginosa fusA1 encoding full-length EF-G was PCR amplified from pET28a-PaEFG-Nhis; made in house; host or cells: E. coli BL21 (DE3)
Method: BL21 (DE3) cells harboring pET28a-PaEFG-Nhis were grown in Terrific Broth containing 100 µg/ml kanamycin. EF-G1 expression was induced using 1 mM IPTG. Cell pellets were resuspended and lysed using a microfluidizer, after which ultracentrifugation was performed. Purification was done using NiNTA resin followed by removal of the N-terminal Histidine tag with thrombin protease. The protein was further purified using a Mono Q column and was then concentrated and loaded onto a HiLoad Superdex 200 26/60 column, exchanging the protein into 25 mM Tris-HCl pH 7.5, 150 mM NaCl and 1 mM TCEP. […] Sitting drop vapor diffusion method was used for crystallization, with the crystallization well containing 100 mM Tris-HCl pH 7.5, 18% PEG 3350 and 200 mM sodium nitrate, and the drop containing a 1∶1 volume of protein and crystallization solution. After crystals formed they were subsequently cryoprotected using the crystallization solution with the addition of 20% glycerol, followed by flash freezing directly into liquid nitrogen.
The data were measured from a single crystal maintained at 100°K, and the reflections were indexed, integrated, and scaled using autoPROC [27], [28]. The spacegroup of the complex is C2 with 1 molecule in the asymmetric unit. The structure was determined with PHASER [29] using molecular replacement methods with a starting model of Thermus thermophilus EF-G (PDB Code 2BM0). […]

B. multivorans = assay: Broth microdilution susceptibility to argyrin B, B. multivorans strains; assay type: cell-based
RKO = assay: Cell viability (CellTiter-Glo), RKO with siRNA or mEF-G1 variants; assay type: cell-based, human
Method: HCT116 (ATCC, CCL-247) and RKO (ATCC, CRL-2577) cell lines were maintained in a humidified incubator at 37°C and 5% CO2 in RPMI1640 supplemented with 10% FBS. Cell viability was determined using the CellTiter-Glo luminescent cell viability assay (Promega). […] Subsequently, 40 µl of CellTiter-Glo reagent was added to each well and luminescence recorded on an Envision plate reader (Perkin Elmer). Each treatment condition was tested in triplicate and compared to an equivalent volume of DMSO as control.
Non-targeting (NT) or GFM1 siRNA pools were obtained from Dharmacon (ON-TARGETplus SMART pool D-001810 and L-013685). HCT116 and RKO cells were reverse transfected in 6-well plates using RNAiMax (Invitrogen) and 25 nM siRNA. After 2 days, cells were harvested by trypsinization and re-plated into 6-well plates for western blot analysis or into 384-well plates for compound treatments and cell viability determination using CellTiter-Glo as described above.
The human GFM1 cDNA (encoding mEF-G1, Table 2) was mutagenized in pENTR221 (Invitrogen) using QuikChangeII XL site-directed mutagenesis (Stratagene). The following point mutations were introduced: C1355T (encoding S452L), C1481T (encoding S494F) and T2078A (encoding L693Q). The GFM1 cDNAs were then subcloned into the mammalian expression vector pLenti4/TO/V5 using LR clonase II (Invitrogen) and sequence-verified. The pLenti4 constructs were then co-transfected with a lentiviral plasmid mix (encoding LP1, LP2 and VSV-G) into 293T cells, and viral particles were harvested after 72 h and used to infect HCT116 and RKO cells. Stable cell lines were generated by selection with 400 µg/ml Zeocin and plated into 6-well plates for western blot analysis or into 384-well plates for compound treatments and cell viability determination using CellTiter-Glo as described above.

C=C1NC(=O)CN(C)C(=O)CNC(=O)[C@H](Cc2c[nH]c3cccc(OC)c23)NC(=O)[C@H](Cc2c[nH]c3ccccc23)NC(=O)c2csc(n2)[C@@H](C)NC(=O)[C@@H](CC)NC1=O [argyrin B] (cyclo([dAbu][dAla(ψthiazole)]W[Trp(4-OMe)]G[Sar][Dha]))
Susceptibility to argyrin B (P. aeruginosa; P. aeruginosa ATCC 12055 (parent of ATCC 35151)): 8 µg/mL | Susceptibility to argyrin B (P. aeruginosa; P. aeruginosa ATCC 35151 (Z61), hypersensitive): 0.125 to 0.25 µg/mL | Susceptibility to argyrin B (P. aeruginosa; P. aeruginosa CDA0055 (Z61, FusA1 S417L)): 64 µg/mL | Susceptibility to argyrin B (P. aeruginosa; P. aeruginosa CDA0056 (Z61, FusA1 S459F)): 8 µg/mL | Susceptibility to argyrin B (P. aeruginosa; P. aeruginosa CDA0061 (Z61, FusA L663Q)): >128 µg/mL | Susceptibility to argyrin B (P. aeruginosa; P. aeruginosa CDR0052 (K767, FusA1 T671A)): >128 µg/mL | Susceptibility to argyrin B (P. aeruginosa; P. aeruginosa CDR0054 (K767, FusA1 S459F)): >128 µg/mL | Susceptibility to argyrin B (P. aeruginosa; P. aeruginosa CDR0055 (K767, FusA1 S417L)): >128 µg/mL | Susceptibility to argyrin B (P. aeruginosa; P. aeruginosa CDR0056 (K767, FusA1 Y683C)): >128 µg/mL | Susceptibility to argyrin B (P. aeruginosa; P. aeruginosa CDR0057 (K767, FusA1 P486S)): >128 µg/mL | Susceptibility to argyrin B (P. aeruginosa; P. aeruginosa CDR0058 (K767, FusA1 P414S)): >128 µg/mL | Susceptibility to argyrin B (P. aeruginosa; P. aeruginosa K767 (PAO1, prototroph)): 8 µg/mL | Sensitivity of mutants to argyrin B (in words) (P. aeruginosa; P. aeruginosa Z61 mutants with S417L and S459F substitutions): still partially sensitive | Binding site in co-crystal structure (P. aeruginosa EF-G1): bound at the interface of domains III and V | Susceptibility to argyrin B (B. multivorans; B. multivorans CDA0079 (FusA1 P484R)): >32 µg/mL | Susceptibility to argyrin B (B. multivorans; B. multivorans CDA0080 (FusA1 S415L)): >32 µg/mL | Susceptibility to argyrin B (B. multivorans; B. multivorans CDA0093 (FusA1 S415W)): >32 µg/mL | Susceptibility to argyrin B (B. multivorans; B. multivorans CDA0094 (FusA1 L656P)): >32 µg/mL | Susceptibility to argyrin B (B. multivorans; B. multivorans NB49004 (clinical isolate)): 1 µg/mL | Lowering of IC50 by knock down of mEF-G1 (RKO; GFM1 siRNA, 7 days, CellTiter Glo): ~3.3 fold | Sensitivity under hypoxic culture conditions (in words) (RKO; hypoxia, data not shown): became less sensitive | Decrease of susceptibility on expression of mEF-G1 L693Q (RKO; mEF-G1 L693Q, 7 days): 7 fold | Sensitivity change on expression of mEF-G1 S452L and S494F (in words) (RKO; mEF-G1 S452L and S494F, 7 days): only marginal effects | Sensitivity change on overexpression of mEF-G1 WT (in words) (RKO; mEF-G1 WT stable overexpression, 7 days): did not alter the argyrin B-sensitivity
